Reference: patent publication US12559488B2, “Substituted morpholines as ATR kinase inhibitors” (JIANGSU HENGRUI MEDICINE CO., LTD., priority 2019, dated 2026)

Experiments:
ATR enzyme = target: T1, ATR enzyme (Homo sapiens, UniProt Q13535); experiment: Inhibitory effect on ATR enzyme (phospho-p53 HTRF); type: biochemical; settings: for IC50: 1 nM ATR enzyme, 50 nM P53 protein, 7.435 μM ATP, 2 h room temperature, read-out: IC50 for ATR enzyme inhibition; for Maximum inhibition (%) of ATR enzyme: compound serially 3-fold diluted from 1 μM
T1 construct: purchased Eurofins Pharma Discovery Services 14-953-M
T1 sequence (Q13535 whole entry): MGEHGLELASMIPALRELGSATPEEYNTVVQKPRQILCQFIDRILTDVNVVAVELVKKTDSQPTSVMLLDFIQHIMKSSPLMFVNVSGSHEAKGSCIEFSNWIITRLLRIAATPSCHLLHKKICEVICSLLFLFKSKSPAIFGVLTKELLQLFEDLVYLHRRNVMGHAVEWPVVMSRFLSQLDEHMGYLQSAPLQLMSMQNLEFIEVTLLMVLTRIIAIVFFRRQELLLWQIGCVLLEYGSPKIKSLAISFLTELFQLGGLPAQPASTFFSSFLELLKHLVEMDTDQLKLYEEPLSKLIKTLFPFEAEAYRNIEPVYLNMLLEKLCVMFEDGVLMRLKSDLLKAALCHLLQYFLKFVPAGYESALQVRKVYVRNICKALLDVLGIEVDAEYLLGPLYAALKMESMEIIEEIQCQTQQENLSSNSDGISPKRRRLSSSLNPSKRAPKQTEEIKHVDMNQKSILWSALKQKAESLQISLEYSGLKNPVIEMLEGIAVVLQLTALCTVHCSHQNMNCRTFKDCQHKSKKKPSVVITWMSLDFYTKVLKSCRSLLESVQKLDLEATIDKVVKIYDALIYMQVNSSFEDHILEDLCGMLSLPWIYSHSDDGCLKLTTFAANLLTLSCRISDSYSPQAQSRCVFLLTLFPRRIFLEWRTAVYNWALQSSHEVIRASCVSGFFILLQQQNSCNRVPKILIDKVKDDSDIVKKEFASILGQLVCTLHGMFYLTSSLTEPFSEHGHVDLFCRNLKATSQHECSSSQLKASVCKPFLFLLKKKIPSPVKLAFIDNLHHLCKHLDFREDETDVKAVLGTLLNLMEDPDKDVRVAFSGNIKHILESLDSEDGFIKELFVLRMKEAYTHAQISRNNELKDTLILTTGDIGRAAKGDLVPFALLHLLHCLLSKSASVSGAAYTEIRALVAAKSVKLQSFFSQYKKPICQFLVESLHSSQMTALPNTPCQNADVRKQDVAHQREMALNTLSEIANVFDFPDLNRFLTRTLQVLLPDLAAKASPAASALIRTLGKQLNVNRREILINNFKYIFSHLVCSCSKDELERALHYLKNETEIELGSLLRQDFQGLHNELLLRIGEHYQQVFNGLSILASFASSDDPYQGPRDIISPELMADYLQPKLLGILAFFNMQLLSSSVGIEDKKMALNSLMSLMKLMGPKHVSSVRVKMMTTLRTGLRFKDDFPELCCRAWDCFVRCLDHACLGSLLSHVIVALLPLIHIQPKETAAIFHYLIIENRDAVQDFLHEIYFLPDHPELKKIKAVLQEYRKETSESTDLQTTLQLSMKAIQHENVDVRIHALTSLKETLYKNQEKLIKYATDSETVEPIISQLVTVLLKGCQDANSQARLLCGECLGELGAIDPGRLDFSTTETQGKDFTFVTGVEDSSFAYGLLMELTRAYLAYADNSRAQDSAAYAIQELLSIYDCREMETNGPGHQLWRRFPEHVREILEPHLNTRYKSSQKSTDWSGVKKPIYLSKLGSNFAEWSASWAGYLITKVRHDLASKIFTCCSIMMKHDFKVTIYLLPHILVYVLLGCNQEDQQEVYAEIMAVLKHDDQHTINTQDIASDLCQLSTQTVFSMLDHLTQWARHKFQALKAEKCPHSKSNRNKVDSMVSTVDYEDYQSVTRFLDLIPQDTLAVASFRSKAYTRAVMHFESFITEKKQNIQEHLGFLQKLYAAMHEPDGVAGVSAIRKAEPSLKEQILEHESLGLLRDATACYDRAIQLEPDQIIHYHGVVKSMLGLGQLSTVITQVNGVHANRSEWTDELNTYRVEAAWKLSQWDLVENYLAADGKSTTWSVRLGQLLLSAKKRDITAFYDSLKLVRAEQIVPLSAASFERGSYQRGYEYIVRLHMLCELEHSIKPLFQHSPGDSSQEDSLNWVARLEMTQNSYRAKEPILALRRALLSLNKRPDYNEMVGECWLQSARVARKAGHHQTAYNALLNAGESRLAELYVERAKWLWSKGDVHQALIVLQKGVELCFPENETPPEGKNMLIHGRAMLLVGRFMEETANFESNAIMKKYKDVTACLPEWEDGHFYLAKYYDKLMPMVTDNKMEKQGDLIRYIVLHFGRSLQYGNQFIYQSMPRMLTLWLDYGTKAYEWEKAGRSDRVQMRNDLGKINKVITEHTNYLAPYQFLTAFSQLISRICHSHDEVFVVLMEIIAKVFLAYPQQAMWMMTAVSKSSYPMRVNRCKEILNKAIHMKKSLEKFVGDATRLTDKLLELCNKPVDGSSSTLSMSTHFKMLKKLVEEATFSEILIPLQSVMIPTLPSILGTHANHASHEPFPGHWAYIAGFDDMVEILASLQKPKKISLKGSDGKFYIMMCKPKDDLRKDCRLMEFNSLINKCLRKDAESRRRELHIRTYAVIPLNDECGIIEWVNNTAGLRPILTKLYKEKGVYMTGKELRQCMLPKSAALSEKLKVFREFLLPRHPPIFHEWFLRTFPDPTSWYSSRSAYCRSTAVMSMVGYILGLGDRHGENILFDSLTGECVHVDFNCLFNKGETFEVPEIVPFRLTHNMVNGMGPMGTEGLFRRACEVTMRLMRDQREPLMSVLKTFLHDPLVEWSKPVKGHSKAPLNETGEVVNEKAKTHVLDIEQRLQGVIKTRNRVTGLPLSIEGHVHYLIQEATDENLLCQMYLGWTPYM
T1 sequence (Q8WXE1 whole entry partner): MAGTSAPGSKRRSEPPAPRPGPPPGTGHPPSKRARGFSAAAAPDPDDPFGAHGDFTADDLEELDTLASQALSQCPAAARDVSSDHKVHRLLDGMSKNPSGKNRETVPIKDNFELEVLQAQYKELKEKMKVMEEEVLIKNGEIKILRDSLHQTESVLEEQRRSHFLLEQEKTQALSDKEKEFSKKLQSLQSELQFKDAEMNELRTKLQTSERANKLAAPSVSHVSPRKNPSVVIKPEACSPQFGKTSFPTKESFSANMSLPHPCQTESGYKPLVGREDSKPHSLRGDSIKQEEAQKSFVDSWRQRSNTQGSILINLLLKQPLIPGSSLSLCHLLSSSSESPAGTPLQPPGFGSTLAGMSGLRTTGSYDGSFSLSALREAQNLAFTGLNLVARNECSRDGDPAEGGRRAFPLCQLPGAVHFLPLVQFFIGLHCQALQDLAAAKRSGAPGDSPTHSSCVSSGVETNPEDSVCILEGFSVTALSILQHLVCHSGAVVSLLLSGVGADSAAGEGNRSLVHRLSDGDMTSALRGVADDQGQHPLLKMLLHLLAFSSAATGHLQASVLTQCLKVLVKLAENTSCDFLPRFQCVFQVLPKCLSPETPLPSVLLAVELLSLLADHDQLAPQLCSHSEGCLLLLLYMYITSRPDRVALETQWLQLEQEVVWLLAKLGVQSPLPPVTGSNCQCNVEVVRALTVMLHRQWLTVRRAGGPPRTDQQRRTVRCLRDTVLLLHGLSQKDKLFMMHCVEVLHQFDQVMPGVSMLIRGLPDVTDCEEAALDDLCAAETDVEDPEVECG
From the text: The following method was used to determine the inhibitory effect of the compounds disclosed herein on ATR enzyme. The experimental methodology is briefly described as follows:
• 1. ATR enzyme (Eurofins Pharma Discovery Services, 14-953-M) • 2. GST-tag P53 protein (Eurofins Pharma Discovery Services, 14-952-M) • 3. 384-well plate (Thermo Scientific, 267462) • 4. U-shaped bottom 96-well plate (Corning, 3795) • 5. MAb Anti-phospho p53-Eu cryptate (Cisbio, 61P08KAE) • 6. MAb Anti GST-d2 (Cisbio, 61GSTDLF) • 7. ATP solution (Promega, V916B) • 8. EDTA (Thermo Scientific, AM9260G) • 9. HEPES (Gibco, 15630-080) • 10. Microplate reader (BMG, PHERAsta)
1 nM ATR enzyme, 50 nM P53 protein, 7.435 μM ATP and small molecule compounds of different concentrations (serially 3-fold diluted from 1 μM to the 11th concentration) were mixed and incubated at room temperature for 2 h. A terminating buffer (12.5 mM HEPES, 250 mM EDTA) was added. The mixture was well mixed before 0.42 ng/well of mAb anti-phospho p53-Eu cryptate and 25 ng/well of mAb anti GST-d2 were added. The mixture was incubated overnight at room temperature, and the fluorescence signals at 620 nm and 665 nm were detected using a PHERAstar system. Data were processed using GraphPad software.

LoVo cells = experiment: LoVo cell proliferation assay (intracellular ATP content, CellTiter-Glo); type: cell-based; settings: LoVo human colon cancer cells, 3 days incubation; for IC50: 72 h, read-out: IC50 for LoVo cell proliferation inhibition
From the text: The following method evaluates the inhibitory effect of the compounds disclosed herein on the proliferation of LoVo cells via IC50 by measuring the intracellular ATP content. The experimental methodology is briefly described as follows:
• 1. LoVo, human colon cancer cells (Cobioer, Nanjing, CBP60032) • 2. Fetal bovine serum (FBS) (Gibco, 10091-148) • 3. F-12K Medium (Gibco, 21127030) • 4. CellTite-Glo reagent (Promega, G7573) • 5. 96-well cell culture plate (Corning, 3903) • 6. Pancreatin (Invitrogen, 25200-072) • 7. Microplate reader (BMG, PHERAstar) • 8. Cell counter (Countstar, Shanghai, IC1000)
LoVo cells were cultured in an F-12K culture medium containing 10% of FBS, and passaged twice or thrice a week in a passage ratio of 1:3 or 1:5. During passage, cells were digested by pancreatin, transferred to a centrifuge tube, and centrifuged for 3 min at 1200 rpm. The supernatant was discarded, and fresh culture medium was added to resuspend the cells. To a 96-well cell culture plate, 90 μL of the cell suspension was added at a density of 3.88×10^4 cells/mL. To peripheral wells of the 96-well plate, only 100 μL of complete medium was added. The plate was incubated in an incubator for 24 h (37° C., 5% CO2).
The test samples were diluted to 2 mM in DMSO and serially 3-fold diluted to the 10th concentration. Blank and control wells were set. 5 μL of the serially diluted test compound solutions was added to 95 μL of fresh medium. 10 μL of the medium containing the compound above was added to the plate. The plate was incubated in an incubator for 3 days (37° C., 5% CO2). 50 μL of CellTiter-Glo reagent was added into each well of the 96-well cell culture plate. The plate was let stand for 5-10 min in the dark at room temperature. The chemiluminescence signals were read by a PHERAstar system, and the data were processed by GraphPad software.

[1] = Pharmacokinetic study in rats after intragastric administration; type: in vivo; settings: both sexes, Sprague-Dawley (SD), rat, plasma, po, 2 mg/kg; for Vd/F: read-out: Apparent volume of distribution Vz/F; for AUC: read-out: Area under curve AUC; for CL/F: read-out: Clearance CL/F; for half-life: read-out: Half life T1/2 (converted); for Cmax: read-out: Plasma concentration Cmax; for MRT: read-out: Retention time MRT
Protocol: The plasma concentration of the compounds of Examples 1, 2 and 3 in rats after intragastric administration were measured by LC/MS/MS. The pharmacokinetic performance in rats of the compounds disclosed herein was studied and their pharmacokinetic profile was evaluated.
The compounds of Examples 1, 2 and 3.
12 healthy adult SD rats (half male and half female; purchased from Vital River) were evenly divided into 3 groups of 4.
A certain amount of the compound was added to a mixed solvent containing 5% of DMSO, 5% of Tween 80 and 90% of normal saline to obtain a colorless and clear solution.
SD rats were intragastrically administered with the compounds after fasting overnight, at a dose of 2 mg/kg and a volume of 10.0 mL/kg.
Rats were intragastrically administered with the compounds of Examples 1, 2 and 3. 0.2 mL of blood was collected from the orbit pre-dose and at 0.25, 0.5, 1.0, 2.0, 4.0, 6.0, 8.0, 11.0 and 24.0 h post-does. The blood samples were transferred to EDTA-K2kk anticoagulation vacutainers, centrifuged at 4° C. and 11000 rpm for 5 min to separate plasma. The plasma samples were stored at −20° C. The mice were fed 2 h after administration.
The plasma concentration of the compounds in rats after intragastric administration was determined: 25 μL of rat plasma at each time point post-dose was mixed with 50 μL of internal standard and 175 μL of acetonitrile; the mixture was vortexed 5 min, and centrifuged for 10 min at 4000 rpm. 1 μL of supernatant was taken for LC/MS/MS analysis.

Row | SMILES | IC50 (ATR enzyme) | Maximum inhibition (%) of ATR enzyme (ATR enzyme) | IC50 (LoVo cells) | Vd/F [1] | AUC [1] | CL/F [1] | half-life [1] | Cmax [1] | MRT [1] | Maximum inhibition (%) of LoVo cell proliferation (LoVo cells)
1 | C[C@@H]1COCCN1c1cc(-c2ccnn2C)c2c(n1)c(-c1cc[nH]n1)nn2C [Example 3, (R)-3-methyl-4-(1-methyl-7-(1-methyl-1H-pyrazol-5-yl)-3-(1H-pyrazol-3-yl)-1H-pyrazolo[4,3-b]pyridin-5-yl) morpholine] | 0.015 µM | 100% | 0.124 µM | 2.44 ± 0.448 L/kg | 2710 ± 807 ng·h/mL | 13.1 ± 3.7 mL/min/kg | 2.23 ± 0.53 h | 674 ± 86.7 ng/mL | 3.26 ± 0.67 h | 87%
2 | C[C@@H]1COCCN1c1cc(C(C)(C)O)c2c(n1)c(-c1cc[nH]n1)nn2C [Comparative Example 1, (R)-2-(1-methyl-5-(3-methylmorpholinyl)-3-(1H-pyrazol-3-yl)-1H-pyrazolo[4,3-b]pyridin-7-yl)propan-2-ol, reference compound] | 0.073 µM | 97% | 0.316 µM | – | – | – | – | – | – | 92%
3 | CCn1nc(-c2cc[nH]n2)c2nc(N3CCOC[C@H]3C)cc(C3(C#N)CC3)c21 [Example 5, (R)-1-(1-ethyl-5-(3-methylmorpholinyl)-3-(1H-pyrazol-3-yl)-1H-pyrazolo[4,3-b]pyridin-7-yl) cyclopropanenitrile] | 0.008 µM | 100% | 0.1 µM | – | – | – | – | – | – | 93%

Now those with a lower IC50 (LoVo cells), led by results:

Row | IC50 (ATR enzyme) | Maximum inhibition (%) of ATR enzyme (ATR enzyme) | IC50 (LoVo cells) | Vd/F [1] | AUC [1] | CL/F [1] | half-life [1] | Cmax [1] | MRT [1] | SMILES | Maximum inhibition (%) of LoVo cell proliferation (LoVo cells)
4 | 0.009 µM | 100% | 0.075 µM | 7.8 ± 6.13 L/kg | 1590 ± 1390 ng·h/mL | 51.7 ± 49.5 mL/min/kg | 2.57 ± 1.39 h | 309 ± 219 ng/mL | 3.99 ± 2.26 h | C[C@@H]1COCCN1c1cc(C2(C#N)CC2)c2c(n1)c(-c1cc[nH]n1)nn2C [Example 2, (R)-1-(1-methyl-5-(3-methylmorpholinyl)-3-(1H-pyrazol-3-yl)-1H-pyrazolo[4,3-b]pyridin-7-yl)cyclopropanenitrile] | 90%
5 | 0.006 µM | 100% | 0.064 µM | – | – | – | – | – | – | CCn1nc(-c2cc[nH]n2)c2nc(N3CCOC[C@H]3C)cc(C(C)(C)C#N)c21 [Example 4, (R)-2-(1-ethyl-5-(3-methylmorpholinyl)-3-(1H-pyrazol-3-yl)-1H-pyrazolo[4,3-b]pyridin-7-yl)-2-methylpropanenitrile] | 89%
6 | 0.003 µM | 100% | 0.055 µM | – | – | – | – | – | – | C[C@@H]1COCCN1c1cc(C(C)(C)C#N)c2[nH]nc(-c3cc[nH]n3)c2n1 [Example 6, (R)-2-methyl-2-(5-(3-methylmorpholinyl)-3-(1H-pyrazol-3-yl)-1H-pyrazolo[4,3-b]pyridin-7-yl)propanenitrile] | 95%
7 | – | – | 0.043 µM | – | – | – | – | – | – | C[C@@H]1COCCN1c1cc(C(C)(C)C#N)c2c(n1)c(-c1cc[nH]n1)nn2C [Example 1, (R)-2-methyl-2-(1-methyl-5-(3-methylmorpholinyl)-3-(1H-pyrazol-3-yl)-1H-pyrazolo[4,3-b]pyridin-7-yl)propanenitrile] | –
